Test results published in patent US20230095618A1, “OIL-IN-WATER EMULSION COMPRISING A SOLID LIPID MATERIAL” (priority 2020, published 2023).

Test system: yellow fever mosquito, Aedes aegypti Rockefeller strain
Assay: Repulsive effect on mosquitoes: number of landings on a treated warm glass plate in a cage
Type: in vivo
Details: reference actives diluted at 12.5% in ethanol; for number of mosquito landings: glass plate at 34° C., cage with 30 unfed A. aegypti females
Experimental: Controlling efficacy was tested against the yellow fever mosquito, Aedes aegypti Rockefeller strain. […] Observations of controlling efficacy were made on host-seeking females of uniform age, 5 to 12 days post-eclosion from pupae. Tested hungry females had access to 10% sugar solution but were not blood-fed. The testing protocol was adapted from the method described in Krober et al. (2010; doi: 10.2987/10-6044.1). A controlled amount […] of stimulus was deposited in the center of a sandblasted glass plate (60 mm diam) and maintained at 34° C. The glass plate was then placed in a polycarbonate cage (200×260×180 mm) containing 30 A. aegypti unfed female mosquitoes. The number of landings of the mosquitoes as a function of time was monitored using a camera and allowed to evaluate the repulsive effect of the stimulus. Stimuli tested were water, ethanol or diluted insect repellent active as controls and samples according to example 1. When only water is applied onto the glass surface, the average number of mosquitoes landing is about 63. The reference sample consisting of pure IR3535® diluted at 12.5% in ethanol reduces the number of landing from about 63 landings in the control test to about 12 landings 2 hrs after application (81% reduction), 15 after 4 hrs (−76%) and 30 after 6 hrs (−52%). Emulsion 1 according to example 1 reduces the number of landings from about 63 landings in the control test to about 12 landings 2 hrs after application (81% reduction), 4 after 4 hrs (−93%) and 3 after 6 hrs (−95%). […] Emulsion 2 according to example 1 reduces the number of landings from about 63 landings in the control test to about 8 landings 2 hrs after application (87% reduction), 2 after 4 hrs (−97%) and 4 after 6 hrs (−93%).

CCCCN(CCC(=O)OCC)C(C)=O [IR3535®, ethyl 3-(acetyl(butyl)amino)propanoate]
number of mosquito landings (2 hrs after application): about 12 landings
reduction of the number of landings versus water control (2 hrs after application): 81%
number of mosquito landings (after 4 hrs): ~15 landings
change of the number of landings versus water control (given as negative %) (after 4 hrs): −76%
number of mosquito landings (after 6 hrs): ~30 landings
change of the number of landings versus water control (given as negative %) (after 6 hrs): −52%

CCN(CC)C(=O)c1cccc(C)c1 [DEET, N,N-diethyl-3-methylbenzamide]
number of mosquito landings (2 hrs after application): about 15 landings
reduction of the number of landings versus water control (2 hrs after application): 72%
number of mosquito landings (after 4 hrs): ~10 landings
change of the number of landings versus water control (given as negative %) (after 4 hrs): −81%
number of mosquito landings (after 6 hrs): ~19 landings
change of the number of landings versus water control (given as negative %) (after 6 hrs): −65%
